Measured values published in patent publication US9585854B2, “N-acetyl-L-cysteine for use in in vitro fertilization” (IASOMAI AB, priority 2012, dated 2017).
Where two headings read alike, the source gives them in different places. Where a SMILES comes first, the peptide text is derived from it. Bridges are numbered along the chain shown (N, C = ends). [ ]: non-standard residue; d: D form. Orn = NCCC[C@H](N)C(=O)O; Mpa = O=C(O)CCS

What was measured:
[1] = test system: pregnancy rates after IVF-ET; conditions: cited from earlier work
[2] = test system: oxytocin antagonist; implantation after IVF; conditions: cited from earlier work
embryo implantation = embryo implantation in oxytocin-treated mice; format: in vivo; conditions: mice given oxytocin
Source text: Indeed, in mice, NAC was confirmed to support embryo implantation. In the animal model, embryo implantation rate was decreased when the mice were given oxytocin.
In mice, NAC was confirmed to support embryo implantation. In the animal model, embryo implantation rate was decreased when the mice were given oxytocin.

[3] = test system: RGD recognition sites on integrins; conditions: cited from earlier work
[4] = test system: Isolated uteri from virgin Wistar rats; experiment: isolated organ bath study of uterine contractions; design: species or system rat
Experimental: Animals were kept at 22° C., housed 3 per cage and fed ad libitum. Isolated uteri from virgin Wistar rats (200-280 g) in estrous, which was determined by examination of a daily vaginal smear, were used.
Protamine sulphate (PS) and NAC were dissolved in pure water.
All rats were sacrificed by cervical dislocation. The uterine horns were excised, carefully cleaned and mounted vertically in a 10 ml volume organ bath containing De Jalon's solution (NaCl 154 mM, KCl 5.6 mM, CaCl2×2H2O 0.41 mM, NaHCO 2 5.9 mM and glucose 2.8 mM), under 1 g tension, aerated with 95% oxygen and 5% carbon dioxide at 37° C. […] After 10 min increasing concentrations of PS were added until the total cessation of contractions was observed.
Myometrial tension was recorded isometrically with an organ bath and transducer.
Effects of treatments on uterine contractions were calculated as percentages for control, untreated and contracting conditions. Each data value is expressed as the mean±SEM. differences between groups were analyzed by two-way ANOVA. EC50 values were compared using one-way ANOVA

Which “effect on pregnancy rates” value [1] does the source give for `CC(=O)[C@H]1CC[C@H]2[C@@H]3CCC4=CC(=O)CC[C@]4(C)[C@H]3CC[C@]12C` [Progesterone] here?
The value was “no benefit”.

With `CCOc1ccc(C[C@H]2NC(=O)CCSSC[C@@H](C(=O)N3CCC[C@H]3C(=O)N[C@@H](CCCN)C(=O)NCC(N)=O)NC(=O)[C@H](CC(N)=O)NC(=O)[C@H]([C@@H](C)O)NC(=O)[C@H]([C@@H](C)CC)NC2=O)cc1` [atosiban] ([Mpa][dY](Et)ITNCP[Orn]G-NH2; disulfide 1-6) as the compound, how does the “Implantation rates per embryo transferred” value ([2]; total i.v. dose 37.5 mg before and up to 2 h after embryo transfer, placebo 12.6%) read?
The value was 20.4%.

What about the early miscarriages ([2]; total i.v. dose 37.5 mg, placebo 24.4%) of the same compound?
The early miscarriages was 16.7%.

And the “clinical pregnancy rates per cycle” value ([2]; total i.v. dose 37.5 mg, placebo 28.9%)?
The value was 46.7%.

Which embryo implantation rate (embryo implantation) does the source give for `CC[C@H](C)[C@@H]1NC(=O)[C@H](Cc2ccc(O)cc2)NC(=O)[C@@H](N)CSSC[C@@H](C(=O)N2CCC[C@H]2C(=O)N[C@@H](CC(C)C)C(=O)NCC(N)=O)NC(=O)[C@H](CC(N)=O)NC(=O)[C@H](CCC(N)=O)NC1=O` [oxytocin] here?
Its embryo implantation rate is “decreased”.

For `CN1C(C(=O)Nc2ccccn2)=C(O)c2ccccc2S1(=O)=O` [piroxicam], which “effect on pregnancy rates” value [1] is on record?
The value was “positive effect”.

For `CC(NCCc1ccc(O)cc1)C(O)c1ccc(O)cc1` (stereo not drawn) [ritodrine], which “effect on pregnancy rates” value [1] is on record?
The value was “positive effect”.

With Arg-Gly-Asp (RGD) peptide [RGD peptide] as the compound, how does the “rat blastocyst attachment to Ishikawa cells” value ([3]; either the blastocysts or the Ishikawa cells pre-incubated) read?
The value was “significant reduction in blastocyst attachment”.

And the “rat blastocyst attachment to Ishikawa cells” value ([3]; pre-treatment of both blastocysts and Ishikawa cells)?
The value was “inhibited blastocyst attachment, but not completely”.

For Protamine sulphate [PS], which “relaxation of uterine contractions” value ([4]; calcium ion-induced uterine contractions) is on record?
Its value is “dose-dependent relaxation”.

And the “relaxation of uterine contractions” value ([4]; spontaneously active uteri)?
The value was “dose-dependent relaxation”.

What about the “EC50 for PS-treated uteri” value ([4]; spontaneously active vs calcium ion-induced uteri) of the same compound?
Its value is “lower in spontaneously active uteri than in calcium ion-induced uteri”.
